For 10 molecules, inhibition and Activity results are on record in ChEMBL document CHEMBL1124351, “Syntheses and bioevaluation of substituted dihydropyridines for pregnancy-interceptive activity in hamsters” (1989).

Assay [1] deals with T1, Progesterone receptor (Oryctolagus cuniculus) (UniProt P06186).
T1 sequence (whole entry): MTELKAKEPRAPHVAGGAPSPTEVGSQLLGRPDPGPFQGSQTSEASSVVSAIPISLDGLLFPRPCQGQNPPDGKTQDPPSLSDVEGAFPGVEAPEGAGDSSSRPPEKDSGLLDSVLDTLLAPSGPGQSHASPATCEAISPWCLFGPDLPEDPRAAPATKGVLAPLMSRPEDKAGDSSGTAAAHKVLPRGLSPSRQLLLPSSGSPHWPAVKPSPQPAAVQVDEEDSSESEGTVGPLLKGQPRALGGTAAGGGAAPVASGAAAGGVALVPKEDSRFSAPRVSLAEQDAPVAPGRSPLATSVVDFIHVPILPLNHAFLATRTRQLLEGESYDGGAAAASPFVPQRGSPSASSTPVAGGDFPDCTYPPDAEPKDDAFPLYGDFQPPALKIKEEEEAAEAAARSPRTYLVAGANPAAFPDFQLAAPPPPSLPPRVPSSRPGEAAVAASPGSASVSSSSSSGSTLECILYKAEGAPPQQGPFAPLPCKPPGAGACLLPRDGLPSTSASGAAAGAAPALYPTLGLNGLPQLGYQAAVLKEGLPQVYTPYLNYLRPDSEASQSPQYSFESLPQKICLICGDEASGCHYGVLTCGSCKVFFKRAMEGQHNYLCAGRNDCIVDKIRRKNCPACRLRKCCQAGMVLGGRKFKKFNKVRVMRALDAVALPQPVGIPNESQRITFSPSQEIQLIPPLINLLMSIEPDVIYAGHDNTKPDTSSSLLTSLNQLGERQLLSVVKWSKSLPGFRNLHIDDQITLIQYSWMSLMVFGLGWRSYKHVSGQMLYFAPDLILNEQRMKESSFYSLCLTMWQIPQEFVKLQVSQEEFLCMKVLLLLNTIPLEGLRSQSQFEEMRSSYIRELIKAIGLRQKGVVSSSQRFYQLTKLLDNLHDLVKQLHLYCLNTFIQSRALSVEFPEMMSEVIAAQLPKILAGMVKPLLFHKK
The assay can be described thus: Percent inhibition of [3H]- progesterone binding to rabbit uterine progesterone receptor, at 10e-5 M compound concentration. As to conditions: at 10 µM.

The target of assay [2] is T1, Progesterone receptor (Oryctolagus cuniculus). Put plainly: Percent inhibition of [3H]- progesterone binding to rabbit uterine progesterone receptor, at 10e-6 M compound concentration. As to conditions: at 1 µM.
Assay [3] relates to Cricetinae gen. sp. The assay can be described thus: Activity against pregnancy-interceptive activity in Syrian golden hamsters, when administered, at a dose of 9.31 mmol/kg. It counts as functional.
Assay [4] deals with T1, Progesterone receptor (Oryctolagus cuniculus). Put plainly: Percent inhibition of [3H]- progesterone binding to rabbit uterine progesterone receptor, at 10e-7 M compound concentration. The settings on record: at 0.1 µM.
Assay [5] deals with Progesterone receptor (Mesocricetus auratus). Put plainly: Percent inhibition of [3H]- progesterone binding to Syrian golden hamster uterine cytosol progesterone receptor, at 10e-9 M compound concentration. As to conditions: at 0.001 µM.
Assay [6] has as its target T1, Progesterone receptor (Oryctolagus cuniculus). Put plainly: Percent inhibition of [3H]- progesterone binding to rabbit uterine progesterone receptor, at 10e-9 M compound concentration. The settings on record: at 0.001 µM.
For assay [7], the system named is Progesterone receptor (Mesocricetus auratus). The assay can be described thus: Percent inhibition of [3H]- progesterone binding to Syrian golden hamster uterine cytosol progesterone receptor, at 10e-6 M compound concentration. As to conditions: at 1 µM.
Assay [8] has as its target T1, Progesterone receptor (Oryctolagus cuniculus). Put plainly: Percent inhibition of [3H]- progesterone binding to rabbit uterine progesterone receptor, at 10e-8 M compound concentration. As to conditions: at 0.01 µM.
For assay [9], the system named is Progesterone receptor (Mesocricetus auratus). Put plainly: Percent inhibition of [3H]- progesterone binding to Syrian golden hamster uterine cytosol progesterone receptor, at 10e-5 M compound concentration. The settings on record: at 10 µM.
Assay [10] shares this test system. The assay can be described thus: Percent inhibition of [3H]- progesterone binding to Syrian golden hamster uterine cytosol progesterone receptor, at 10e-7 M compound concentration. As to conditions: at 0.1 µM.
The test system is the same in assay [11]. Put plainly: Percent inhibition of [3H]- progesterone binding to Syrian golden hamster uterine cytosol progesterone receptor, at 10e-8 M compound concentration. The settings on record: at 0.01 µM.
The subject of assay [12] is Cricetinae gen. sp. The assay can be described thus: Activity against pregnancy-interceptive activity in Syrian golden hamsters, when administered, at a dose of 9.54 mmol/kg. The class given is functional.
In assay [13] the test system is Cricetinae gen. sp. Put plainly: Activity against pregnancy-interceptive activity in Syrian golden hamsters, when administered, at a dose of 15.11 mmol/kg. The class given is functional.
Assay [14] deals with Cricetinae gen. sp. The assay can be described thus: Activity against pregnancy-interceptive activity in Syrian golden hamsters, when administered, at a dose of 13.85 mmol/kg. It counts as functional.
For assay [15], the target named is T1, Progesterone receptor (Oryctolagus cuniculus). Put plainly: Percent inhibition of [3H]- progesterone binding to rabbit uterine progesterone receptor at 10e-7 M.
For assay [16], the system named is Cricetinae gen. sp. Put plainly: Activity against pregnancy-interceptive activity in Syrian golden hamsters, when administered, at a dose of 7.83 mmol/kg. It counts as functional.
Assay [17] relates to Cricetinae gen. sp. The assay can be described thus: Activity against pregnancy-interceptive activity in Syrian golden hamsters, when administered, at a dose of 26.88 mmol/kg. The class given is functional.
The subject of assay [18] is Cricetinae gen. sp. The assay can be described thus: Activity against pregnancy-interceptive activity in Syrian golden hamsters, when administered, at a dose of 7.97 mmol/kg. It counts as functional, Cricetulus griseus.
Assay [19] has as its system Cricetinae gen. sp. Put plainly: Activity against pregnancy-interceptive activity in Syrian golden hamsters, when administered, at a dose of 6.96 mmol/kg. The class given is functional.
Assay [20] deals with Cricetinae gen. sp. Put plainly: Activity against pregnancy-interceptive activity in Syrian golden hamsters, when administered, at a dose of 8.40 mmol/kg. The class given is functional, Cricetulus griseus.
Assay [21] concerns Cricetinae gen. sp. Put plainly: Activity against pregnancy-interceptive activity in Syrian golden hamsters, when administered, at a dose of 19.43 mmol/kg. It counts as functional.

On to `COC(=O)C1=C(C)N=C(C)/C(=C(\O)OC)C1c1cc2cc(-c3c(C)oc(C)c3C(=O)OC)ccc2nc1Cl` (stereo not given), for which the inhibition in assay [1] stood at 8%; in assay [2], 10%; in assay [4], 5%; in assay [5] it was 5%; in [6], 0%; in [7] it was 20%. The inhibition was found to be 0% in assay [8], 17% in assay [9], 9% in [10] and 10% in assay [11]. The Activity in the assay on Cricetinae gen. sp. [3] stood at 1.8.
For the molecule `COC(=O)C1=C(C)N=C(C)/C(=C(/O)OC)C1c1ccc(C2C(C(=O)OC)=C(C)N=C(C)/C2=C(/O)OC)cc1` (stereo not given), the inhibition was 36% in assay [1]; 26% in assay [2]; 16% in assay [4]; 9% in assay [5]; 4% in assay [6]; 31% in [7]. For the same molecule, the inhibition in [8] amounted to 10%; in [9], 34%; in [10] it was 15%; in assay [11], 13%. Besides, in the assay on Cricetinae gen. sp. [12], the Activity is 6.2.
As to `COC(=O)C1=C(C)N=C(C)/C(=C(/O)OC)C1c1ccc(N)c(N)c1` (stereo not given), the inhibition in [1] amounted to 21%; in [2], 15%; in [4], 16%; in assay [5], 0%; in [6], 13%; in assay [7], 14%. Moreover, the inhibition in [8] was determined as 10%; in [9], 18%; in [10], 9%; in assay [11], 0%. This molecule also registered an Activity with Cricetinae gen. sp. [13] of 2.3.
As for `COC(=O)C1=C(C)N=C(C)/C(=C(\O)OC)C1c1ccc(N)c([N+](=O)[O-])c1` (stereo not given), the inhibition in [1] was 5%; in [2], 1%; in [4], 0%; in [5], 0%; in [6] it was 0%; in [7] it was 5%. Further, the inhibition in assay [8] came to 0%; in [9], 10%; in assay [10], 5%; in assay [11] it was 0%. The molecule also returned an Activity with Cricetinae gen. sp. [14] of 7.
As for `COC(=O)C1=C(C)N=C(C)/C(=C(\O)OC)C1c1cc(C(=O)c2ccc(C)cc2)c(OC)cc1OC` (stereo not given), the inhibition in assay [15] turned out to be 15%; in [1] it was 23%; in assay [2] it was 18%; in assay [5], 8%; in [6] it was 10%; in assay [7], 15%. Also, the inhibition in assay [8] was 11%; in assay [9] it was 18%; in [10], 15%; in assay [11] it was 12%. In addition, the Activity with Cricetinae gen. sp. [16] was 6.
With `COC(=O)Nc1nc2cc(C3C(C(=O)OC)=C(C)N=C(C)/C3=C(/O)OC)ccc2n1Cc1ccccc1` (stereo not given), the Activity with Cricetinae gen. sp. [17] was 3.58 mean.
Take `COC(=O)C1=C(C)N=C(C)/C(=C(/O)OC)C1c1ccc2nc(-c3ccc(OC)c(OC)c3)n(Cc3ccc(OC)c(OC)c3)c2c1` (stereo not given): the inhibition in assay [1] is 8%; in [2], 10%; in [4] it was 8%; in assay [5], 2%; in [6], 0%; in [7], 10%. Moreover, the inhibition in assay [8] stood at 0%; in [9] it was 16%; in assay [10], 5%; in assay [11], 5%. Also, in the assay on Cricetinae gen. sp. [18], the Activity is 4.
As for `COC(=O)C1=C(C)N=C(C)/C(=C(\O)OC)C1c1ccc(C(=O)OC)cc1` (stereo not given), the inhibition in [15] was 20%; in assay [1], 25%; in assay [2] it was 15%; in assay [5], 10%; in assay [6], 0%; in [7], 32%. The inhibition in assay [8] came to 0%; in [9], 40%; in [10], 27%; in assay [11] it was 10%. Moreover, the Activity in the assay on Cricetinae gen. sp. [19] came out at 0.72.
Take `COC(=O)C1=C(C)N=C(C)/C(=C(/O)OC)C1c1ccc2nc(-c3ccc4c(c3)OCO4)n(Cc3ccc4c(c3)OCO4)c2c1` (stereo not given): the inhibition in assay [1] is 18%; in assay [2] it was 12%; in assay [4] it was 5%; in assay [5], 0%; in assay [6], 0%; in [7], 15%. Further, the inhibition in assay [8] turned out to be 0%; in assay [9], 16%; in assay [10], 8%; in [11] it was 5%. Moreover, the Activity in the assay on Cricetinae gen. sp. [20] is listed as 4.4.
As for `COC(=O)C1=C(C)N=C(C)/C(=C(/O)OC)C1c1cc2ccccc2nc1Cl` (stereo not given), the inhibition came to 17% in assay [1]; 16% in assay [2]; 10% in assay [4]; 6% in assay [5]; 8% in assay [6]; 14% in assay [7]. The inhibition in assay [8] was 11%; in [9], 14%; in [10], 11%; in assay [11], 10%. The same molecule displayed an Activity with Cricetinae gen. sp. [21] of 3.

A word on the inhibition: it is the change of the read-out against control, counted positive when it falls.
